From US20230125429A1 (priority 2017, published 2023)
Values joined by “and” are separate entries in the source; they are usually repeats but may differ in a detail not shown here. Identical values can stand only once. “Also recorded” adds a separate entry of the source.

What was measured:
[1] = test system: 51 human cancer cell lines; experiment: Growth inhibitory effect, one hour exposure, whole panel; assay type: cell-based; conditions: mean over the 51 cancer cell lines
Procedure: Cancer cell lines and immortalized human cell lines were cultured in 1640 tissue culture medium (Corning, USA) with 10% fetal bovine serum in a standard tissue culture condition of 37° C. and 5% CO2.
For primary hepatocytes, the seeded cells were monitored for up to 48 hours either without any treatment (as a control) or with various types of treatments. For primary keratinocytes, cells in 48-well plates were monitored either without any treatment or with various types of treatment for up to 96 hours. For HepG2, cells 96-well plates were monitored either without any treatment or with various types of treatments for up to 48 hours. […]
To address this possibility, we investigated whether other cell lines, including other HCC cell lines, cell lines from other type of cancers, as well as non-cancer immortalized/transformed cell lines, were also sensitive to Triptonide. Specifically, a total of 51 human cancer cell lines, representing 10 types of human cancers (6 non-small cell lung cancer cell lines, 5 colon cancer cell lines, 5 central nerve system cancer cell lines, 8 Melanomas cell lines, 4 ovarian cancer cell lines, 4 renal cancer cell lines, 2 prostate cancer cell lines, 3 breast cancer cell lines, 7 hepatocellular carcinoma cell lines, and 4 gastric cancer cell lines) were analyzed.

[2] = test system: Par2 knockout keratinocytes; experiment: Growth of Par2 knockout primary keratinocytes, one hour treatment; assay type: cell-based, mouse; conditions: one hour treatment
[3] = test system: ERK phosphorylation; experiment: ERK phosphorylation in HepG2 cells (Western blot); assay type: cell-based, human; conditions: serum-starved HepG2; trypsin 50 nM, Triptolide 1 µM, Triptonide 1 µM; 0-40 minutes
[4] = test system: cAMP; experiment: Measurement of cAMP levels in HepG2 cells; assay type: cell-based, human
[5] = test system: PKA; experiment: Measurement of PKA activity in HepG2 cells; assay type: cell-based, human
[6] = test system: wild-type keratinocytes; experiment: Growth of wild-type primary keratinocytes, continuous exposure; assay type: cell-based, mouse
Procedure: For the neonatal mouse keratinocyte culture, the dorsal skins of neonatal wild type or Par2 knockout mice were harvested from wild type or Par2 knockout mice, respectively. The skins were incubated overnight at 4° C. in a 0.25% solution of trypsin (Life Technologies, USA) in phosphate-buffered saline (PBS) without calcium and magnesium. The epidermis was then separated from the adjoining dermis, and the dispersed epidermal cells were collected in suspension Eagle’s minimal essential medium (SMEM) (Life Technologies, USA) supplemented with glutamine and 8% calcium free fetal calf serum (FCS) (Life Technologies, USA). The cells were plated onto individual wells of 48 well plates (Corning, USA), which were pre-coated with collagen (Life Technologies, USA), at a density of 70,000 cells/well. The cell cultures were kept for 12 hours at 34° C. in a humidified incubator containing 8% CO2. Low calcium (0.05 mM) S-MEM, containing 8% FCS was then added to initiate the culture. The culture medium was changed every 2 days.
For primary hepatocytes, the seeded cells were monitored for up to 48 hours either without any treatment (as a control) or with various types of treatments. For primary keratinocytes, cells in 48-well plates were monitored either without any treatment or with various types of treatment for up to 96 hours. For HepG2, cells 96-well plates were monitored either without any treatment or with various types of treatments for up to 48 hours. The IncuCyte Zoom was set to take a set of images at fixed locations (4 per well for 96-well plates and 16 per well for 48-well plates and 12-well plates) every three hours.
To address this question, we took a genetic approach.

[7] = test system: HepG2 cells; experiment: Blocking the AC-cAMP-PKA pathway, growth of HepG2 cells; assay type: cell-based, human
[8] = Lethal dose and maximum tolerable dose in mice; assay type: in vivo
Procedure: Thus, a second preliminary experiment was carried out in tumor-bearing nude mice to determine whether an antitumor effect could be achieved within the non-toxic range. […] Thus, the 25 mg/kg once every other day regimen was selected for the preclinical experiment. The volumes of individual tumors were assessed by bioluminescent imaging.
Thus, we first determined the lethal dose and the maximum tolerable dose (MTD) of Triptonide for mice based on a once every other day regimen. […] It is noted that once every other day might not be the optimal scheme. Nonetheless, we decided to begin with this scheme and the 25% value of the MTD, i.e. 25 mg/kg.

[9] = test system: PMHs
[10] = test system: mimosine-treated HepG2 cells; experiment: One-hour treatment of mimosine-treated HepG2 cells, live cell imaging; assay type: cell-based, human
[11] = test system: GES-1; experiment: Growth inhibitory effect, one hour exposure (IncuCyte Zoom); assay type: cell-based, human; conditions: GES-1, immortalized gastric epithelium
[12] = test system: LO2; experiment: as above; assay type: cell-based, human; conditions: LO2, immortalized hepatocytes
[13] = test system: serum starved HepG2 cells; assay type: cell-based, human
[14] = test system: phosphorylated histone H3 (p-H3); experiment: Histone H3 phosphorylation in HepG2 cells (Western blot); assay type: cell-based, human; conditions: 1 µM for 1 hour, 2 hours after mimosine release; monitored to hour 12
Procedure: HepG2 cells were synchronized by mimosine for 28 hours and released into regular culture medium for 2 hours. […] After the treatment, cells were incubated in the regular culture condition and samples were harvested every hour from 2 to 12 hours (shown on top of the top panel). Western blots were performed to determine the relative levels of phosphorylated histone H3 (p-H3), CDK1 and beta actin (ATCB) (as controls).
After treatments, cells were harvested and protein extracts were prepared by lysis in RIPA buffer (Solarbio). Western blots were performed using specific antibodies and SuperSignal® West Pico Chemiluminescent Substrate (Pierce). Antibodies were purchased from commercial venders as described below: polyclonal rabbit anti-PAR2 antibodies (ABGENT), polyclonal rabbit anti-Beta-Actin antibodies (Cell Signaling Technology), anti-ERK (Cell Signaling Technology), anti-phosphorylated ERK (Cell Signaling Technology), anti-phosphorylated histone H3 (Abchem), anti-CDK1 (Abcam).
After the Triptonide treatments, cells were returned to regular culture condition and samples were harvested at various time points for Western blot analysis.

[15] = test system: primary mouse hepatocytes (PMH); experiment: Growth of primary mouse hepatocytes, one-hour treatment; assay type: cell-based; conditions: as high as 320 µM
[16] = test system: HepG2; assay type: cell-based, human

Q: Which IC50 [1] does the source give for `CC(C)[C@]12O[C@H]1[C@@H]1O[C@@]13[C@@]1(C)CCC4=C(COC4=O)[C@@H]1C[C@@H]1O[C@@]13C2=O` [Triptonide] here?
A: 7.31 µM and 7.66 µM

Q: And the “effect on growth of Par2 knockout keratinocytes” value ([2]; 100 and 200 µM)?
A: growth inhibitory effects

Q: What about the IC50 ([2]; Par2 knockout keratinocytes) of the same compound?
A: 25.7 µM

Q: And the “effect on growth of Par2 knockout keratinocytes” value ([2]; concentrations up to 26 µM)?
A: did not cause significant growth inhibition

Q: What about the “levels of phosphorylated ERK” value [3] of the same compound?
A: only an acute transient increase

Q: What about the “amplitude of cAMP elevation versus control” value ([4]; 1 µM at 2 hours after mimosine treatment, serum-free) of the same compound?
A: about 4 folds

Q: What about the “levels of cAMP” value ([4]; 1 µM at non-sensitive time, 4 hours after mimosine treatment) of the same compound?
A: modest elevation

Q: And the “levels of cAMP” value ([4]; treatment 2 hours after mimosine, Trypsin 50 nM, Triptonide 1 µM, serum-free)?
A: two waves of elevation

Q: What about the “levels of PKA activities, acute” value ([5]; 1 µM, serum free, first 30 minutes after treatment) of the same compound?
A: two-wave elevation

Q: What about the “level of PKA activity around G2/M transition” value ([5]; one-hour treatment in regular medium (Trypsin 50 nM, Triptonide 1 µM), hour 9 and 10 after mimosine) of the same compound?
A: remained largely unchanged

Q: What about the “growth inhibitory effect, wild-type versus Par2 knockout” value ([6]; continuous exposure) of the same compound?
A: more potent growth inhibitory effect on the Par2 wild-type PMHs than their Par2 knockout counterparts

Q: And the “toxicity to Par2-expressing primary mouse keratinocytes” value ([6]; long-term exposure, as low as 50 nM)?
A: quite toxic

Q: What about the “effect on growth of HepG2 cells” value [7] of the same compound?
A: significant growth inhibitory effect

Q: And the mortality ([8]; 100 mg/kg three times a day, four-hour interval, within four days)?
A: all animals were dead

Q: And the death ([8]; 200 mg/kg oral, once every other day, within four days)?
A: 100%

Q: And the adverse effects ([8]; up to 100 mg/kg oral, once every other day)?
A: did not cause any significant adverse effects; also recorded: did not result in any significant adverse effects

Q: And the “effect of continuous exposure on PMHs” value [9]?
A: complete death

Q: And the “toxic effect on PMHs” value [9]?
A: no significant toxic effect

Q: What about the “effect of treatment applied at hour 0 after release” value [10] of the same compound?
A: became static, but no significant accumulation of mitotic catastrophe cells

Q: And the “sensitivity to mitotic catastrophe-inducing effect by time of treatment” value [10]?
A: only sensitive when the treatment was applied at 2 hours

Q: What about the IC50 [11] of the same compound?
A: 16.7 µM

Q: And the IC50 [12]?
A: 0.642 µM

Q: What about the “cells exhibiting the features of mitotic catastrophe” value [13] of the same compound?
A: approximately 60%

Q: What about the “effect on growth of serum starved HepG2 cells” value [13] of the same compound?
A: no significant impacts; also recorded: growth inhibitory only when it was administered at the 0 and 2 hours after the starvation

Q: And the “level of histone H3 phosphorylation” value [14]?
A: remained very low

Q: What about the “growth inhibitory effect on PMHs” value [15] of the same compound?
A: no significant growth inhibitory effect

Q: What about the “effect of continuous exposure on HepG2” value [16] of the same compound?
A: complete death
